Results as given in ChEMBL document CHEMBL1201862, “PubChem BioAssay data set” (2004).
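Dose response: 5 concentrations. Exposure: 48 h. Format: 96-well plates. Endpoint: linear interpolation; highest concentration if not reached. GI50 marks 50% less growth.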 Calls of active or inactive are those of the source. Rule as the data show it: active = GI50 up to about 1.1 µM and inactive = higher.

Assays:
Test in all cases: DTP human tumour cell line panel, 48 h
[1] = tested on: 786-0
[2] = tested on: PC-3
[3] = tested on: ACHN
[4] = tested on: U-251
[5] = tested on: CCRF-CEM
[6] = tested on: DU-145
[7] = tested on: BT-549
[8] = tested on: HCT-116
[9] = tested on: SF-295
[10] = tested on: SK-OV-3
[11] = tested on: SW-620
[12] = tested on: MCF7
[13] = tested on: HL-60
[14] = tested on: OVCAR-4
[15] = tested on: IGROV-1
[16] = tested on: SN12C
[17] = tested on: SF-268
[18] = tested on: A549
[19] = tested on: SNB-19
[20] = tested on: OVCAR-3

Measured: GI50

CC(C)Oc1c(N(Cc2ccccc2)c2ccccc2C2SCCCS2)c(=O)c1=O
inactive: [1] 4.41 µM | [2] 3.29 µM | [3] 5.81 µM | [4] 4.4 µM | [5] 5.87 µM | [6] 4.18 µM | [7] 6.38 µM | [8] 4.05 µM | [9] 2.2 µM | [10] 3.39 µM | [11] 2.71 µM | [12] 4.16 µM | [13] 3.98 µM | [14] 9.04 µM | [15] 3.32 µM | [16] 6.17 µM | [17] 5.96 µM | [18] 5.36 µM | [19] 3.9 µM | [20] 2.33 µM

C[C@]12CC[C@H]3[C@@H](CC=C4C[C@@H](N5CCCC5)CC[C@@]43C)[C@@H]1C[C@H](N1CCOCC1)[C@@H]2O
inactive: [1] > 100 µM | [2] > 100 µM | [3] > 100 µM | [4] > 100 µM | [5] > 100 µM | [6] > 100 µM | [7] > 100 µM | [8] > 100 µM | [9] > 100 µM | [10] > 100 µM | [11] > 100 µM | [12] > 10 µM | [13] 98.4 µM | [14] > 100 µM | [15] > 100 µM | [16] > 100 µM | [17] > 100 µM | [18] > 100 µM | [19] > 100 µM | [20] > 100 µM

O=C(O)c1ccc(SSc2ccc(C(=O)O)cn2)nc1
inactive: [1] > 100 µM | [2] > 100 µM | [3] > 100 µM | [4] > 100 µM | [5] > 100 µM | [6] > 100 µM | [7] > 100 µM | [8] > 100 µM | [9] > 100 µM | [10] > 100 µM | [11] > 100 µM | [12] > 100 µM | [13] > 100 µM | [14] > 100 µM | [15] > 100 µM | [16] > 100 µM | [17] > 100 µM | [18] > 100 µM | [19] > 100 µM | [20] > 100 µM

COC(=O)CCC1=CCC2(SC)C(=O)Nc3cccc1c32 (stereo not given)
inactive: [1] > 100 µM | [2] > 100 µM | [3] > 100 µM | [4] > 100 µM | [5] > 100 µM | [6] 44.5 µM | [7] > 100 µM | [8] > 100 µM | [9] > 100 µM | [10] > 100 µM | [11] > 100 µM | [12] > 100 µM | [13] > 100 µM | [14] > 100 µM | [15] > 100 µM | [16] > 100 µM | [17] > 100 µM | [18] > 100 µM | [19] > 100 µM | [20] > 100 µM
